Where two headings read alike, the source gives them in different places.
How the values were obtained:
[1] = tested on: TNFα production in LPS-stimulated human monocytes; assay: Cot Monocyte TNFα Cell Based Assay; conditions: Homo sapiens, Monocyte, read-out: EC50 TNF
Procedure, shortened: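 TR-FRET read-out of total secreted TNFα, normalized as % control (unstimulated = 0%, LPS-stimulated = 100%). Cells (5,000/well) were exposed to compound 1 h at 37 °C, then to 50 pg/ml LPS for a further 4 h.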

[2] = target: T1, human Cot catalytic domain (30-397 amino acids) (Homo sapiens, UniProt P41279); assay: High Throughput Cot Biochemical Assay (KinEASE TR-FRET); conditions: Cot KinEASE TR-FRET, 400 μM ATP; read-out: IC50 HTRF
T1 construct: Purified recombinant human Cot catalytic domain (30-397 amino acids) was purchased from Cama Biosciences; purchased Cama Biosciences (so in the source)
Procedure, shortened: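 TR-FRET readout: Eu-labeled phospho-specific antibody binds XL665-tagged STK3 peptide after phosphorylation by Cot (aa 30-397, 5 nM). Conditions: 400 μM ATP, 1 μM peptide, MOPS pH 7.0 buffer with MgOAc, DTT, BSA, NP-40, glycerol; 0.1% DMSO.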

[3] = LPS-stimulated human monocytes, TNFα TR-FRET

T1 sequence (P41279 30-397): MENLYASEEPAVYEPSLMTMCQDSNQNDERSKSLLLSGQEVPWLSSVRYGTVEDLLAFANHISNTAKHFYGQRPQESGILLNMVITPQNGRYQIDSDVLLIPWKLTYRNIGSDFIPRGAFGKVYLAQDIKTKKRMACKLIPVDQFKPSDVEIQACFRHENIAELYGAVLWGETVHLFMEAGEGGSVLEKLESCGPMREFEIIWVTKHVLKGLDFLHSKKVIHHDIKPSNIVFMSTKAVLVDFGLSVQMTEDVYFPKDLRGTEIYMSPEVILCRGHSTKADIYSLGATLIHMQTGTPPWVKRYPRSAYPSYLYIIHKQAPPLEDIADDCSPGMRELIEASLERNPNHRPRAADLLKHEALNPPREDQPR

Row | SMILES | EC50 [1, 3] | IC50 [2] | EC50 [1]
1 | [2H][C@](Nc1cc(Br)c2ncc(C#N)c(NCC(C)(C)C)c2c1)(c1ccc(F)cc1)c1cn(CC(O)CNC(C)(C)C)nn1 (stereo partly drawn) [Example 988, 8-bromo-6-(((1S)-(1-(3-(tert-butylamino)-2-hydroxypropyl)-1H-1,2,3-triazol-4-yl)(4-fluorophenyl)methyl-d)amino)-4-(neopentylamino)quinoline-3-carbonitrile] | 334 nM | 14 nM | 
2 | CC(C)(C)CNc1c(C#N)cnc2c(Cl)cc(N[C@@H](c3ccc(F)cc3)c3cn(C4(C#N)CC4)nn3)cc12 [Example 989, (S)-8-chloro-6-(((1-(1-cyanocyclopropyl)-1H-1,2,3-triazol-4-yl)(4-fluorophenyl)methyl)amino)-4-(neopentylamino)quinoline-3-carbonitrile] | 111 nM | 12 nM | 
3 | CC(C)(C)CNc1c(C#N)cnc2c(Cl)cc(N[C@@H](c3ccc(F)cc3)c3cn(C4(C)CC4)nn3)cc12 [Example 990, (S)-8-chloro-6-(((4-fluorophenyl)(1-(1-methylcyclopropyl)-1H-1,2,3-triazol-4-yl)methyl)amino)-4-(neopentylamino)quinoline-3-carbonitrile] | 76 nM | 12 nM | 
4 | CC(C)(C)CNc1c(C#N)cnc2c(Cl)cc(N[C@@H](c3ccc(F)cc3)c3cn(C4(c5ccccn5)CC4)nn3)cc12 [Example 991, (S)-8-chloro-6-(((4-fluorophenyl)(1-(1-(pyridin-2-yl)cyclopropyl)-1H-1,2,3-triazol-4-yl)methyl)amino)-4-(neopentylamino)quinoline-3-carbonitrile] | 136 nM | 34 nM | 
5 | CC(C)(C)CNc1c(C#N)cnc2c(Cl)cc(N[C@@H](c3ccc(F)cc3)c3cn(C4(C(N)=O)CCC4)nn3)cc12 [Example 992, (S)-1-(4-(((8-chloro-3-cyano-4-(neopentylamino)quinolin-6-yl)amino)(4-fluorophenyl)methyl)-1H-1,2,3-triazol-1-yl) cyclobutane-1-carboxamide] | 76 nM | 5 nM | 
6 | [2H][C@](Nc1cc(C#N)c2ncc(C#N)c(NCC(C)(C)C)c2c1)(c1ccc(F)cc1)c1cn(CCC2CN2C(C)(C)C)nn1 (stereo partly drawn) [Example 993, 6-(((1S)-(1-(2-(1-(tert-butyl)aziridin-2-yl)ethyl)-1H-1,2,3-triazol-4-yl)(4-fluorophenyl)methyl-d)amino)-4-(neopentylamino) quinoline-3,8-dicarbonitrile] |  | 32 nM | 3610 nM
7 | [2H][C@](Nc1cc(C#N)c2ncc(C#N)c(NCC(C)(C)C)c2c1)(c1ccc(F)cc1)c1cn(-c2cccnc2)nn1 [Example 994, (S)-6-(((4-fluorophenyl)(1-(pyridin-3-yl)-1H-1,2,3-triazol-4-yl)methyl-d)amino)-4-(neopentylamino) quinoline-3,8-dicarbonitrile] | 103 nM | 33 nM | 
8 | Cc1c(C#N)cccc1[C@H](Nc1cc(C#N)c2ncc(C#N)c(NCC(C)(C)C)c2c1)c1cn(C2(C(F)(F)F)CC2)nn1 [Example 995, (S)-6-(((3-cyano-2-methylphenyl)(1-(1-(trifluoromethyl)cyclopropyl)-1H-1,2,3-triazol-4-yl)methyl)amino)-4-(neopentylamino)quinoline-3,8-dicarbonitrile] | 49 nM | 3 nM | 
9 | CC(C)(C)CNc1c(C#N)cnc2c(Cl)cc(N[C@@H](c3ccc(F)cc3)c3cn(C4(C(N)=O)CC4)nn3)cc12 [Example 996, (S)-1-(4-(((8-chloro-3-cyano-4-(neopentylamino)quinolin-6-yl)amino)(4-fluorophenyl)methyl)-1H-1,2,3-triazol-1-yl)cyclopropane-1-carboxamide] | 109 nM | 6 nM | 
10 | CC(C)(C)CNc1c(C#N)cnc2c(Cl)cc(N[C@@H](c3ccc(F)cc3)c3cn(C4(c5cccnc5)CC4)nn3)cc12 [Example 997, (S)-8-chloro-6-(((4-fluorophenyl)(1-(1-(pyridin-3-yl)cyclopropyl)-1H-1,2,3-triazol-4-yl)methyl)amino)-4-(neopentylamino) quinoline-3-carbonitrile] | 61 nM | 48 nM | 
11 | CC(C)(C)CNc1c(C#N)cnc2c(Cl)cc(N[C@@H](c3ccc(F)cc3)c3cn(C4(C(F)(F)F)CCC4)nn3)cc12 [Example 998, (S)-8-chloro-6-(((4-fluorophenyl)(1-(1-(trifluoromethyl)cyclobutyl)-1H-1,2,3-triazol-4-yl)methyl)amino)-4-(neopentylamino)quinoline-3-carbonitrile] | 250 nM | 53 nM | 
12 | CC(C)(C)CNc1c(C#N)cnc2c(F)cc(N[C@H](c3cn(C4(C(N)=O)CC4)nn3)c3ccccc3Cl)cc12 [Example 999, (S)-1-(4-((2-chlorophenyl)((3-cyano-8-fluoro-4-(neopentylamino)quinolin-6-yl)amino)methyl)-1H-1,2,3-triazol-1-yl)cyclopropane-1-carboxamide] | 306 nM | 63 nM | 
13 | CC(C)(C)CNc1c(C#N)cnc2c(F)cc(N[C@H](c3cn(C4(C#N)CC4)nn3)c3ccccc3Cl)cc12 [Example 1000, (S)-6-(((2-chlorophenyl)(1-(1-cyanocyclopropyl)-1H-1,2,3-triazol-4-yl)methyl)amino)-8-fluoro-4-(neopentylamino)quinoline-3-carbonitrile] | 177 nM | 58 nM | 
14 | CC(C)(C)CNc1c(C#N)cnc2c(F)cc(N[C@H](c3cn(C(F)(F)C(N)=O)nn3)c3ccccc3Cl)cc12 [Example 1001, (S)-2-(4-((2-chlorophenyl)((3-cyano-8-fluoro-4-(neopentylamino)quinolin-6-yl)amino)methyl)-1H-1,2,3-triazol-1-yl)-2,2-difluoroacetamide] | 344 nM | 22 nM | 
15 | CC(C)(C)CNc1c(C#N)cnc2c(Cl)cc(N[C@@H](c3ccc(F)cc3)c3cn(CC(F)F)nn3)cc12 [Example 1002, (S)-8-chloro-6-(((1-(2,2-difluoroethyl)-1H-1,2,3-triazol-4-yl) (4-fluorophenyl)methyl)amino)-4-(neopentylamino) quinoline-3-carbonitrile] | 202 nM | 14 nM | 
16 | CC(C)(C)CNc1c(C#N)cnc2c(Cl)cc(N[C@H](c3cn(C4CC4)nn3)c3cccc4ccccc34)cc12 [Example 1003, (S)-8-chloro-6-(((1-cyclopropyl-1H-1,2,3-triazol-4-yl)(naphthalen-1-yl)methyl)amino)-4-(neopentylamino)quinoline-3-carbonitrile] | 227 nM | 19 nM | 
17 | [2H][C@@](Nc1cc(C#N)c2ncc(C#N)c(NCC(C)(C)C)c2c1)(c1cn(-c2cccnc2)nn1)c1ccccc1Cl [Example 1004, (S)-6-(((2-chlorophenyl)(1-(pyridin-3-yl)-1H-1,2,3-triazol-4-yl)methyl-d)amino)-4-(neopentylamino)quinoline-3,8-dicarbonitrile] | ≥ 1000 nM | 33 nM | 
18 | [2H][C@](Nc1cc(C#N)c2ncc(C#N)c(NCC(C)(C)C)c2c1)(c1cccc(C#N)c1)c1cn(-c2cccnc2)nn1 [Example 1005, (S)-6-(((3-cyanophenyl)(1-(pyridin-3-yl)-1H-1,2,3-triazol-4-yl)methyl-d)amino)-4-(neopentylamino) quinoline-3,8-dicarbonitrile] | ≥ 1000 nM | ≥ 10000 nM | 
19 | [2H][C@](Nc1cc(C#N)c2ncc(C#N)c(NCC(C)(C)C)c2c1)(c1ccc(F)cc1)c1cn(C2(CF)CC2)nn1 [Example 1006, (S)-6-(((1-(1-(fluoromethyl)cyclopropyl)-1H-1,2,3-triazol-4-yl)(4-fluorophenyl)methyl-d)amino)-4-(neopentylamino)quinoline-3,8-dicarbonitrile] | 72 nM | 9 nM | 
20 | [2H][C@](Nc1cc(C#N)c2ncc(C#N)c(NCC(C)(C)C)c2c1)(c1cccc(C#N)c1)c1cn(C2(CF)CC2)nn1 [Example 1007, (S)-6-(((3-cyanophenyl)(1-(1-(fluoromethyl)cyclopropyl)-1H-1,2,3-triazol-4-yl)methyl-d)amino)-4-(neopentylamino)quinoline-3,8-dicarbonitrile] | 66 nM | 2 nM | 
21 | Cc1c(C#N)cccc1[C@H](Nc1cc(Cl)c2ncc(C#N)c(NCC(C)(C)C)c2c1)c1cn(C2(C(N)=O)CC2)nn1 [Example 1008, (S)-1-(4-(((8-chloro-3-cyano-4-(neopentylamino)quinolin-6-yl)amino)(3-cyano-2-methylphenyl)methyl)-1H-1,2,3-triazol-1-yl)cyclopropane-1-carboxamide] | 123 nM | 1 nM | 
22 | Cc1c(C#N)cccc1[C@H](Nc1cc(Cl)c2ncc(C#N)c(NCC(C)(C)C)c2c1)c1cn(C2(C(N)=O)CCC2)nn1 [Example 1009, (S)-1-(4-(((8-chloro-3-cyano-4-(neopentylamino)quinolin-6-yl)amino)(3-cyano-2-methylphenyl)methyl)-1H-1,2,3-triazol-1-yl)cyclobutane-1-carboxamide] | 67 nM | 1 nM | 
23 | [2H][C@](Nc1cc(Cl)c2ncc(C#N)c(NCC(C)(C)C)c2c1)(c1ccc(Cl)cc1)c1cn(C23CCN(CC2)CC3)nn1 [Example 1010, (S)-8-chloro-6-(((4-chlorophenyl)(1-(quinuclidin-4-yl)-1H-1,2,3-triazol-4-yl)methyl-d)amino)-4-(neopentylamino)quinoline-3-carbonitrile] |  | 69 nM | 928 nM

Reference: patent US10316017B2, “COT modulators and methods of use thereof” (Gilead Sciences, Inc., priority 2015, dated 2019)
